Data set [1] addresses T1, recombinantly expressed IKK-1 (Homo sapiens, UniProt O15111).
T1 construct: made in house
T1 sequence (O15111 1-745): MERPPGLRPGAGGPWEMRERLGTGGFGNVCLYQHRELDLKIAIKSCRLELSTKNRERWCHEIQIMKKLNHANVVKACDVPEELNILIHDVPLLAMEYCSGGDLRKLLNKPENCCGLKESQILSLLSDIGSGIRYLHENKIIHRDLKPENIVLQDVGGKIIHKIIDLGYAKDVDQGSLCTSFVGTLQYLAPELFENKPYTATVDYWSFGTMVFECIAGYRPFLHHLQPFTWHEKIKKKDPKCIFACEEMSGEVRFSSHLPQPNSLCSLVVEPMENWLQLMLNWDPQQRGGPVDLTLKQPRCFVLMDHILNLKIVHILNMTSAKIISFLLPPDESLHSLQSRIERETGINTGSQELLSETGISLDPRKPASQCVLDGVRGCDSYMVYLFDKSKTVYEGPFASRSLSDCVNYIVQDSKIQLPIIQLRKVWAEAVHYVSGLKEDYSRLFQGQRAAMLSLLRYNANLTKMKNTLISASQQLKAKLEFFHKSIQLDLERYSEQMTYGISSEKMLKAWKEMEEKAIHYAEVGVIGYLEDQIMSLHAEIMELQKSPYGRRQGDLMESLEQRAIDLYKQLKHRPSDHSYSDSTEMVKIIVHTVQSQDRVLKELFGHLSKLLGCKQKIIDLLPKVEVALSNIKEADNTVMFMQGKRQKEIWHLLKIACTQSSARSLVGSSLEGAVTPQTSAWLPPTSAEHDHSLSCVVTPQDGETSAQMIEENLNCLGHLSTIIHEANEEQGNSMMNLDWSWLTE
The experiment in a line: IKK-1 enzyme assay (33P-ATP / IκB-α phosphorylation). It is filed as biochemical. As to conditions: 33P-labeled ATP and IκB-α as substrates. The procedure: In this assay, test compound was added to a solution of 0.5 mM IκB-α in 40 mM Tris-HCl, pH 8, containing 4 mM MgCl2, 1 mM dithiothreitol, and 2 mM ^33P-labeled ATP. IKK enzyme (either the multisubunit complex from HeLa cells, recombinantly expressed IKK-1, or recombinantly expressed IKK-2) was then added to initiate the reaction. The multisubunit complex was isolated according to the procedure of Lee et al. [(1997) Cell 88:213-222] or Mercurio et al. [(1997) 278:860-866]. The recombinant IKK-1 and IKK-2 were expressed using the procedure of Burke et al. [(1999) J. Biol. Chem. 274:36146-36152]. After incubating for 10 minutes at 30° C., the reaction was quenched by the addition of EDTA to a final concentration of 30 mM. In order to separate the phosphorylated IκB-α (Santa Cruz Biotechnology; Santa Cruz, Calif.) product from unreacted ATP, sodium dodecylsulfate polyacrylamide gel electrophoresis (SDS-PAGE) was performed. Phosphoimager analysis of the amount of ^33P incorporation into IκB-α was executed using a Molecular Dynamics 445 Phosphoimager, and the inhibition of IKK activity by the test compound was calculated from control samples containing no inhibitor.

Structures can show the parent of a compound that is named as a salt.

A word on the melting point: it is the temperature of the solid-liquid transition. The term IC50 denotes the midpoint of a concentration-inhibition curve.

Take `CNCCNc1nc2cc3ccccc3cc2n2c(C)cnc12` (as salt: hydrochloride) [Example 13, 1-methyl-4-(2-N-methylaminoethylamino)benzo[g]imidazo[1,2-a]quinoxaline Hydrochloride]: the melting point was 265 to 275 °C (dec.).

For `CNc1nc2cc3ccccc3cc2n2c(C)cnc12` [Example 12, 1-methyl-4-methylaminobenzo[g]imidazo[1,2-a]quinoxaline], the melting point fell in the range of 201 to 202 °C. Moreover, the IC50 in data set [1] was 230 nM. With `CNCCNc1nc2cc3ccccc3cc2n2c(C)cnc12` [Example 13, 1-methyl-4-(2-N-methylaminoethylamino)benzo[g]imidazo[1,2-a]quinoxaline Hydrochloride], the IC50 in data set [1] stood at 350 nM. Regarding `CNc1nc2cc3ccccc3cc2c2c(C)cnn12` [Example 14, 1-methyl-4-methylaminobenzo[g]pyrazolo[1,5-c]quinazoline], the IC50 in data set [1] amounted to 670 nM. For `CNc1nc2cc3ccccc3cc2c2c1ncn2C` [Example 16, 1-methyl-4-methylaminobenzo(g)imidazo(4,5-c)quinoline], the IC50 in data set [1] stood at 800 nM. `Cn1cnc2c(NCCN)nc3cc4ccccc4cc3c21` [Example 17]: the IC50 in data set [1] was determined as 1000 nM. As for `Cc1cnc2c(NCCO)nc3cc4ccccc4cc3n12` [Example 18, 1-methyl-4-(2-hydroxyethylamino)benzo[g]imidazo[1,2-a]quinoxaline], the melting point lay within 186 to 188 °C. Regarding `Cc1cnc2c(NCCN3CCCCC3)nc3cc4ccccc4cc3n12` [Example 19, 1-methyl-4-(2-piperidin-1-yl-ethylamino)benzo[g]imidazo[1,2-a]quinoxaline], the melting point fell in the range of 170 to 172 °C. Besides, in data set [1], the half-inhibitory concentration (IC50) came to 1700 nM.

Values taken from patent publication US6869956B2, “Methods of treating inflammatory and immune diseases using inhibitors of IκB kinase (IKK)” (Bristol-Myers Squibb Company, priority 2000, dated 2005).
